Laboratory results from PubChem BioAssay AID248 (DTP/NCI, 2004).
Several values for one entry are separate records, joined by “and”; a condition that tells them apart may be missing. Equal values may be shown once. Toxic doses and inconclusive results are not listed. Rule as the data show it: active = T/C of 150% or more; inactive = T/C below 125%.

System: L1210 leukemia ip in BDF1 mice, survival T/C
Test: NCI In Vivo Anticancer Drug Screen. Data for tumor model L1210 Leukemia (intraperitoneal) in B6D2F1 (BDF1) mice
Details: endpoint: mean survival time, higher = longer survival
In short: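 Antitumor effect is assessed in tumor-bearing animals. Survival in the compound arm is compared with a vehicle-dosed control arm and expressed as their quotient.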

[1] = dose: 25.0 mg/kg/injection, schedule: Q04DX003 (ip), vehicle: saline
[2] = dose: 50.0 mg/kg/injection, schedule: Q04DX003 (ip), vehicle: saline
[3] = dose: 100.0 mg/kg/injection, schedule: Q01DX001 (ip), vehicle: saline
[4] = dose: 100.0 mg/kg/injection, schedule: Q04DX003 (ip), vehicle: saline
[5] = dose: 25.0 mg/kg/injection, schedule: Q01DX009 (ip), vehicle: saline with Tween-80
[6] = dose: 50.0 mg/kg/injection, schedule: Q01DX009 (ip), vehicle: saline with Tween-80
[7] = dose: 50.0 mg/kg/injection, schedule: Q04DX003 (ip), vehicle: saline with Tween-80
[8] = dose: 100.0 mg/kg/injection, schedule: Q01DX009 (ip), vehicle: saline with Tween-80
[9] = dose: 100.0 mg/kg/injection, schedule: Q04DX003 (ip), vehicle: saline with Tween-80
[10] = dose: 200.0 mg/kg/injection, schedule: Q04DX003 (ip), vehicle: saline with Tween-80
[11] = dose: 200.0 mg/kg/injection, schedule: Q01DX009 (ip), vehicle: saline with Tween-80
[12] = dose: 400.0 mg/kg/injection, schedule: Q01DX009 (ip), vehicle: saline with Tween-80
[13] = dose: 400.0 mg/kg/injection, schedule: Q04DX003 (ip), vehicle: saline with Tween-80
[14] = dose: 100.0 mg/kg/injection, schedule: Q01DX001 (ip), vehicle: Klucel (hydroxypropylcellulose) (HPC)
[15] = dose: 200.0 mg/kg/injection, schedule: Q01DX001 (ip), vehicle: Klucel (hydroxypropylcellulose) (HPC)
[16] = dose: 400.0 mg/kg/injection, schedule: Q01DX001 (ip), vehicle: Klucel (hydroxypropylcellulose) (HPC)
[17] = dose: 100.0 mg/kg/injection, schedule: Q04DX003 (ip), vehicle: Klucel (hydroxypropylcellulose) (HPC)
[18] = dose: 200.0 mg/kg/injection, schedule: Q04DX003 (ip), vehicle: Klucel (hydroxypropylcellulose) (HPC)
[19] = dose: 400.0 mg/kg/injection, schedule: Q04DX003 (ip), vehicle: Klucel (hydroxypropylcellulose) (HPC)
[20] = dose: 100.0 mg/kg/injection, schedule: Q01DX009 (ip), vehicle: Klucel (hydroxypropylcellulose) (HPC)

Measured: T/C

O=C(c1ccccc1)c1ccsc1C(=O)O
inactive: dose: 6.25 mg/kg/injection, schedule: Q04DX002 (ip), vehicle: saline with Tween-80 94 % of control | dose: 12.5 mg/kg/injection, schedule: Q04DX002 (ip), vehicle: saline with Tween-80 97 % of control | dose: 25.0 mg/kg/injection, schedule: Q04DX002 (ip), vehicle: saline with Tween-80 90 % of control | dose: 200.0 mg/kg/injection, schedule: Q04DX002 (ip), vehicle: saline with Tween-80 101 % of control | dose: 400.0 mg/kg/injection, schedule: Q04DX002 (ip), vehicle: saline with Tween-80 89 % of control

CC(C)(C)OC(=O)CC1(C)CCC2C1C(=O)OC2(C)C (stereo not given)
inactive: [1] 98 % of control | [2] 98 % of control | [3] 91 % of control | [4] 102 % of control

COC(=O)Nc1cccc(NC(=O)C(=O)O)c1
inactive: [5] 105 % of control | dose: 25.0 mg/kg/injection, schedule: Q04DX003 (ip), vehicle: saline with Tween-80 107 % of control | [6] 98 % of control | [7] 105 % of control | [8] 102 % of control | [9] 94 % of control and 100 % of control | [10] 105 % of control

S=C1NC(c2ccco2)N2C(=S)NC(c3ccco3)N12 (stereo not given)
inactive: dose: 100.0 mg/kg/injection, schedule: Q01DX009 (ip), vehicle: gum acacia 90 % of control | dose: 100.0 mg/kg/injection, schedule: Q04DX003 (ip), vehicle: gum acacia 97 % of control | dose: 200.0 mg/kg/injection, schedule: Q01DX009 (ip), vehicle: gum acacia 95 % of control | dose: 200.0 mg/kg/injection, schedule: Q04DX003 (ip), vehicle: gum acacia 103 % of control | dose: 400.0 mg/kg/injection, schedule: Q01DX009 (ip), vehicle: gum acacia 95 % of control | dose: 400.0 mg/kg/injection, schedule: Q04DX003 (ip), vehicle: gum acacia 98 % of control

CCC(c1ccc(Cl)cc1)N1CCC2(CC1)C(=O)NCN2c1ccccc1 (stereo not given)
inactive: [8] 94 % of control | [9] 102 % of control | [11] 96 % of control | [10] 104 % of control | [12] 89 % of control | [13] 91 % of control

CCCCCCCN(CCCCCCC)CC(O)c1cc(-c2ccc(Cl)cc2)nc2c(C(F)(F)F)cccc12 (stereo not given)
inactive: [14] 104 % of control | [8] 102 % of control | [15] 96 % of control | [11] 100 % of control | [16] 100 % of control | [12] 100 % of control

OC1COC(Cl)C(O)C1O (stereo not given)
inactive: [5] 96 % of control | [6] 97 % of control | [8] 94 % of control | [9] 91 % of control | [10] 88 % of control

CCSC(=N)N=Nc1ccc(O)cc1
inactive: dose: 50.0 mg/kg/injection, schedule: Q01DX001 (ip), vehicle: saline 104 % of control | [3] 98 % of control | dose: 200.0 mg/kg/injection, schedule: Q01DX001 (ip), vehicle: saline 102 % of control

Oc1ccccc1C=Nc1cccc(Cl)c1Cl
inactive: [17] 91 % of control | [18] 98 % of control | [19] 100 % of control

O=C1c2ccccc2C(=O)N1CC(O)CCl (stereo not given)
inactive: [6] 93 % of control | [7] 91 % of control | [8] 93 % of control | [9] 102 % of control | [11] 90 % of control | [10] 96 % of control

CCCCCCCCCCCCNC(=O)C[n+]1cccc(C(=O)N(CC)CC)c1
inactive: dose: 12.5 mg/kg/injection, schedule: Q04DX003 (ip), vehicle: saline 92 % of control | [1] 97 % of control | [2] 97 % of control

O=C(COc1ccc(Cl)c(Cl)c1)N(Cc1ccccc1)Cc1cccnc1
inactive: [14] 99 % of control | [20] 98 % of control | [17] 100 % of control | [15] 96 % of control | dose: 200.0 mg/kg/injection, schedule: Q01DX009 (ip), vehicle: Klucel (hydroxypropylcellulose) (HPC) 116 % of control | [18] 96 % of control | [16] 96 % of control | dose: 400.0 mg/kg/injection, schedule: Q01DX009 (ip), vehicle: Klucel (hydroxypropylcellulose) (HPC) 100 % of control | [19] 98 % of control

CC1(C)CC(=O)C(C)(CCc2ccccc2)C(=O)C1
inactive: [9] 97 % of control | [10] 98 % of control | [13] 95 % of control

CCN(CC)CCSC(=O)C(O)(c1ccccc1)C1CCCC1 (stereo not given)
inactive: dose: 25.0 mg/kg/injection, schedule: Q01DX009 (ip), vehicle: saline 103 % of control | dose: 50.0 mg/kg/injection, schedule: Q01DX009 (ip), vehicle: saline 97 % of control and 108 % of control | dose: 75.0 mg/kg/injection, schedule: Q01DX001 (ip), vehicle: saline 96 % of control | dose: 100.0 mg/kg/injection, schedule: Q01DX009 (ip), vehicle: saline 100 % of control and 88 % of control | [4] 102 % of control | dose: 150.0 mg/kg/injection, schedule: Q01DX001 (ip), vehicle: saline 92 % of control | dose: 200.0 mg/kg/injection, schedule: Q04DX003 (ip), vehicle: saline 100 % of control

CC(/C=N/N=C(\N)N(C)C)=N\N=C(/N)N(C)C
inactive: dose: 95.0 mg/kg/injection, schedule: Q01DX Z (oral), vehicle: carboxymethylcellulose (CMC) 104 % of control | dose: 190.0 mg/kg/injection, schedule: Q01DX Z (oral), vehicle: carboxymethylcellulose (CMC) 110 % of control | dose: 240.0 mg/kg/injection, schedule: Q01DX Z (ip), vehicle: carboxymethylcellulose (CMC) 96 % of control | dose: 380.0 mg/kg/injection, schedule: Q01DX Z (oral), vehicle: carboxymethylcellulose (CMC) 106 % of control | dose: 760.0 mg/kg/injection, schedule: Q01DX Z (oral), vehicle: carboxymethylcellulose (CMC) 112 % of control

CC(C)C1=CC23CCC4C(C)(C(=O)Cl)CCCC4(C)C2CC1C1(Br)C(=O)OC(=O)C31Br (stereo not given)
inactive: dose: 75.0 mg/kg/injection, schedule: Q01DX001 (ip), vehicle: other 93 % of control | dose: 150.0 mg/kg/injection, schedule: Q01DX001 (ip), vehicle: other 88 % of control | dose: 300.0 mg/kg/injection, schedule: Q01DX001 (ip), vehicle: other 91 % of control

N=C(N)C(N)=NCC(Br)CBr (stereo not given)
inactive: dose: 100.0 mg/kg/injection, schedule: Q04DX002 (ip), vehicle: saline 93 % of control | dose: 200.0 mg/kg/injection, schedule: Q04DX002 (ip), vehicle: saline 108 % of control

C(/C=C/c1ccccc1)=Nc1ccc2c(c1)Cc1ccccc1-2
inactive: [17] 94 % of control | [18] 89 % of control | [19] 89 % of control

CCCCn1c(C)nc2c(NN=C(N)N)c3ccccc3c(N=NC(=N)N)c21
inactive: dose: 7.5 mg/kg/injection, schedule: Q01DX Z (oral), vehicle: carboxymethylcellulose (CMC) 102 % of control | dose: 15.0 mg/kg/injection, schedule: Q01DX Z (ip), vehicle: carboxymethylcellulose (CMC) 95 % of control | dose: 15.0 mg/kg/injection, schedule: Q01DX Z (oral), vehicle: carboxymethylcellulose (CMC) 104 % of control | dose: 30.0 mg/kg/injection, schedule: Q01DX Z (oral), vehicle: carboxymethylcellulose (CMC) 98 % of control | dose: 60.0 mg/kg/injection, schedule: Q01DX Z (oral), vehicle: carboxymethylcellulose (CMC) 98 % of control

O=C1C=C(c2ccccc2)C(O)(c2ccccc2)O1 (stereo not given)
inactive: dose: 100.0 mg/kg/injection, schedule: Q01DX001 (ip), vehicle: saline with Tween-80 106 % of control | dose: 200.0 mg/kg/injection, schedule: Q01DX001 (ip), vehicle: saline with Tween-80 103 % of control | dose: 400.0 mg/kg/injection, schedule: Q01DX001 (ip), vehicle: saline with Tween-80 101 % of control

COc1c(/C=C/[N+](=O)[O-])ccc2c(C)c(C)oc12
inactive: dose: 25.0 mg/kg/injection, schedule: Q01DX009 (ip), vehicle: Klucel (hydroxypropylcellulose) (HPC) 98 % of control | dose: 50.0 mg/kg/injection, schedule: Q01DX009 (ip), vehicle: Klucel (hydroxypropylcellulose) (HPC) 95 % of control | [20] 101 % of control | [17] 98 % of control | [18] 87 % of control | [19] 92 % of control
